Test results: PubChem BioAssay (NCI)
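Exposure lasted 48 hours, with cells grown in 96-well plates and compounds tested at five concentrations. GI50 is the concentration that inhibits growth by half. The concentration for full growth arrest is given as TGI.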

Assays:
Assay in all cases: inhibition of tumour cell growth, NCI panel, 48 h; in the data active = GI50 below about 0.43 µM; inactive = the rest
786-0 renal = test system: 786-0 renal
A498 renal = test system: A498 renal
A549 NSCLC = test system: A549 NSCLC
ACHN renal = test system: ACHN renal
BT-549 breast = test system: BT-549 breast
CCRF-CEM leukemia = test system: CCRF-CEM leukemia
COLO 205 colon = test system: COLO 205 colon
DU-145 prostate = test system: DU-145 prostate
EKVX NSCLC = test system: EKVX NSCLC
HCC-2998 colon = test system: HCC-2998 colon
HCT-116 colon = test system: HCT-116 colon
HCT-15 colon = test system: HCT-15 colon
HL-60(TB) leukemia = test system: HL-60(TB) leukemia
HOP-62 NSCLC = test system: HOP-62 NSCLC
HOP-92 NSCLC = test system: HOP-92 NSCLC
HS 578T breast = test system: HS 578T breast
HT29 colon = test system: HT29 colon
IGROV1 ovarian = test system: IGROV1 ovarian
K-562 leukemia = test system: K-562 leukemia
KM12 colon = test system: KM12 colon
LOX IMVI melanoma = test system: LOX IMVI melanoma
M14 melanoma = test system: M14 melanoma
MALME-3M melanoma = test system: MALME-3M melanoma
MCF7 breast = test system: MCF7 breast
MDA-MB-231 breast = test system: MDA-MB-231 breast
MDA-MB-435 = test system: MDA-MB-435
MOLT-4 leukemia = test system: MOLT-4 leukemia
NCI-H226 lung = test system: NCI-H226 lung
NCI-H23 lung = test system: NCI-H23 lung
NCI-H460 lung = test system: NCI-H460 lung
NCI-H522 lung = test system: NCI-H522 lung
NCI/ADR-RES ovarian = test system: NCI/ADR-RES ovarian
OVCAR-3 ovarian = test system: OVCAR-3 ovarian
OVCAR-4 ovarian = test system: OVCAR-4 ovarian
OVCAR-5 ovarian = test system: OVCAR-5 ovarian
OVCAR-8 ovarian = test system: OVCAR-8 ovarian
PC-3 prostate = test system: PC-3 prostate
RPMI-8226 leukemia = test system: RPMI-8226 leukemia
RXF 393 renal = test system: RXF 393 renal
SF-268 CNS = test system: SF-268 CNS
SF-295 CNS = test system: SF-295 CNS
SF-539 CNS = test system: SF-539 CNS
SK-MEL-2 melanoma = test system: SK-MEL-2 melanoma
SK-MEL-28 melanoma = test system: SK-MEL-28 melanoma
SK-MEL-5 melanoma = test system: SK-MEL-5 melanoma
SK-OV-3 ovarian = test system: SK-OV-3 ovarian
SN12C renal = test system: SN12C renal
SNB-19 CNS = test system: SNB-19 CNS
SNB-75 CNS = test system: SNB-75 CNS
SR leukemia = test system: SR leukemia
SW-620 colon = test system: SW-620 colon
T-47D breast = test system: T-47D breast
TK-10 renal = test system: TK-10 renal
U251 CNS = test system: U251 CNS
UACC-257 melanoma = test system: UACC-257 melanoma
UACC-62 melanoma = test system: UACC-62 melanoma
UO-31 renal = test system: UO-31 renal

CNCCN(C)Cc1cn[nH]c1-c1ccc(OC2CC(OCCC3CCOCC3)C2)cc1 (centres undefined)
inactive: GI50 (786-0 renal) > 100 µM | GI50 (A498 renal) > 57.1 µM | GI50 (A549 NSCLC) > 100 µM | GI50 (ACHN renal) 64.6 µM | GI50 (BT-549 breast) 54.2 µM | GI50 (CCRF-CEM leukemia) > 100 µM | GI50 (COLO 205 colon) 21.2 µM | GI50 (DU-145 prostate) > 100 µM | GI50 (EKVX NSCLC) > 77.7 µM | GI50 (HCC-2998 colon) > 100 µM | GI50 (HCT-116 colon) > 67.9 µM | GI50 (HCT-15 colon) > 100 µM | GI50 (HL-60(TB) leukemia) > 80.1 µM | GI50 (HOP-62 NSCLC) 99.1 µM | GI50 (HOP-92 NSCLC) 1.43 µM | GI50 (HS 578T breast) 63.1 µM | GI50 (HT29 colon) 38.6 µM | GI50 (IGROV1 ovarian) 48.5 µM | GI50 (K-562 leukemia) 33.3 µM | GI50 (KM12 colon) > 83.9 µM | GI50 (LOX IMVI melanoma) 60.1 µM | GI50 (M14 melanoma) > 66.3 µM | GI50 (MALME-3M melanoma) 28.4 µM | GI50 (MCF7 breast) > 81.2 µM | GI50 (MDA-MB-231 breast) 40.7 µM | GI50 (MDA-MB-435) > 100 µM | GI50 (MOLT-4 leukemia) > 80.2 µM | GI50 (NCI-H226 lung) > 100 µM | GI50 (NCI-H23 lung) > 91.7 µM | GI50 (NCI-H460 lung) 97.9 µM | GI50 (NCI-H522 lung) > 100 µM | GI50 (NCI/ADR-RES ovarian) > 100 µM | GI50 (OVCAR-3 ovarian) > 80 µM | GI50 (OVCAR-4 ovarian) > 85 µM | GI50 (OVCAR-5 ovarian) > 100 µM | GI50 (OVCAR-8 ovarian) > 100 µM | GI50 (PC-3 prostate) > 63.4 µM | GI50 (RPMI-8226 leukemia) 44.4 µM | GI50 (RXF 393 renal) 48.5 µM | GI50 (SF-268 CNS) > 100 µM | GI50 (SF-295 CNS) 49.9 µM | GI50 (SF-539 CNS) > 100 µM | GI50 (SK-MEL-2 melanoma) > 100 µM | GI50 (SK-MEL-28 melanoma) > 67.9 µM | GI50 (SK-MEL-5 melanoma) 34 µM | GI50 (SK-OV-3 ovarian) > 100 µM | GI50 (SN12C renal) > 100 µM | GI50 (SNB-19 CNS) > 100 µM | GI50 (SNB-75 CNS) 38.2 µM | GI50 (SR leukemia) 25.9 µM | GI50 (SW-620 colon) > 100 µM | GI50 (T-47D breast) 27.8 µM | GI50 (TK-10 renal) > 100 µM | GI50 (U251 CNS) 55.2 µM | GI50 (UACC-257 melanoma) 61.6 µM | GI50 (UACC-62 melanoma) 39.1 µM | GI50 (UO-31 renal) 28 µM
> 100 µM: TGI (786-0 renal) | TGI (A498 renal) | TGI (A549 NSCLC) | TGI (ACHN renal) | TGI (BT-549 breast) | TGI (CCRF-CEM leukemia) | TGI (DU-145 prostate) | TGI (EKVX NSCLC) | TGI (HCC-2998 colon) | TGI (HCT-116 colon) | TGI (HCT-15 colon) | TGI (HL-60(TB) leukemia) | TGI (HOP-62 NSCLC) | TGI (HS 578T breast) | TGI (HT29 colon) | TGI (IGROV1 ovarian) | TGI (K-562 leukemia) | TGI (KM12 colon) | TGI (LOX IMVI melanoma) | TGI (M14 melanoma) | TGI (MALME-3M melanoma) | TGI (MCF7 breast) | TGI (MDA-MB-231 breast) | TGI (MDA-MB-435) | TGI (MOLT-4 leukemia) | TGI (NCI-H226 lung) | TGI (NCI-H23 lung) | TGI (NCI-H460 lung) | TGI (NCI-H522 lung) | TGI (NCI/ADR-RES ovarian) | TGI (OVCAR-3 ovarian) | TGI (OVCAR-4 ovarian) | TGI (OVCAR-5 ovarian) | TGI (OVCAR-8 ovarian) | TGI (PC-3 prostate) | TGI (RPMI-8226 leukemia) | TGI (RXF 393 renal) | TGI (SF-268 CNS) | TGI (SF-295 CNS) | TGI (SF-539 CNS) | TGI (SK-MEL-2 melanoma) | TGI (SK-MEL-28 melanoma) | TGI (SK-MEL-5 melanoma) | TGI (SK-OV-3 ovarian) | TGI (SN12C renal) | TGI (SNB-19 CNS) | TGI (SNB-75 CNS) | TGI (SR leukemia) | TGI (SW-620 colon) | TGI (T-47D breast) | TGI (TK-10 renal) | TGI (U251 CNS) | TGI (UACC-257 melanoma) | TGI (UACC-62 melanoma) | TGI (UO-31 renal)
> 50.8 µM: TGI (HOP-92 NSCLC)
85.7 µM: TGI (COLO 205 colon)
